The values that follow come from PMC9114170, “Investigation of the Role of Hydrophobic Amino Acids on the Structure-Activity Relationship in the Antimicrobial Venom Peptide Ponericin L1” (The Journal of membrane biology, 2021).

Data set [1] has as its system Gram-positive and Gram-negative strains. Briefly: Antimicrobial activity over the MIC panel. It counts as cell-based. The note with it: highest concentration tested 15μM. On the procedure:
(§1) Six different strains of bacteria were streaked on LB-Miller agar plates from a frozen glycerol stock derived from the original samples shipped from CGSC (Coli Genetic Stock Center, Yale University) or ATCC (American Type Culture Collection) (Escherichia coli D31 CGSC 5165 ([Burman, Nordstrom & Boman, 1968]), Staphylococcus aureus ATCC 35556. Pseudomonas aeruginosa PA-01 ATCC 47085, Acinetobacter baumannii ATCC 19606). For each of the strains a liquid overnight culture was prepared using a single colony into fresh LB broth and placed in a shaking incubator for ~ 18 hours at 37 C at 225 rpm. After the incubation period, a 1:200 dilution was made in fresh LB broth and then used for experimentation. Minimal Inhibitory Concentration (MIC) determinations were performed using mid-log phase bacteria diluted to 5 x 10^5 CFU/mL. Next, 90 μL of this diluted culture was then pipetted into a sterile 96-well plate that contains serially diluted aliquots of the peptide variants to consist of a total volume of 100 μL. This plate was then incubated for 18 hours at 37 C. Bacterial growth was determined by taking an OD600 measurement using a Spectramax M5 multimode plate reader post incubation. Minimal Bactericidal Concentration (MBC) was performed by taking 1 μL of the culture from the MIC plate and then pipetting it on to a fresh LB agar plate. After plating this culture, the plate was then incubated overnight at 37 C. MBC was determined by the growth or the lack of growth from each well on the agar plate.
(§2) The ability of L1 and the hydrophobic variants to act as antimicrobials was investigated using the Minimal Inhibitory Concentration (MIC) and Minimal Bactericidal Concentration (MBC) assays as previously described ([Wiegand, Hilpert & Hancock, 2008]). The MIC is determined as the lowest concentration of peptide required to inhibit bacterial growth in solution, while the MBC is the lowest concentration required to act in a bactericidal mechanism (as opposed to bacteriostatic) and is determined by plating MIC cultures on antimicrobial-free media. Peptides were screened against E. coli, S. aureus, A. baumannii, P. aeruginosa, B. subtilis, and K. pneumoniae.

The subject of data set [2] is E. coli D31 outer membrane. Briefly: E. coli outer membrane permeabilization (nitrocefin / β-lactamase). The class given is cell-based, Escherichia coli. The settings on record: E. coli D31, nitrocefin hydrolysis, absorbance 486 nm, up to 90 minutes; peptide serially diluted from 15 μM; average of three replicates. On the procedure: A single colony of E.coli D31 was taken from an LB agar plate and inoculated into fresh LB broth with 100 μg/mL ampicillin (LB-Amp), then place in a shaking incubator at 37 C (225 rpm) for ~ 18 hours. After the incubation period 100 μL was taken from the culture and diluted with 25 mL of fresh LB-Amp. The dilution was further incubated in the same conditions until an OD600 of 0.2 to 0.4 was obtained. Once the specified OD600 was reached the culture was then centrifuged at 2500 rpm for 15 minutes in a tabletop clinical centrifuge. The supernatant was discarded and then an equal amount of PBS (100 mM NaH2PO4, 200 mM NaCl, pH7) was used to resuspend the pellet.
Experimental samples were prepared in a 96-well plate in the order as follows: 10 μL of the six peptide variants that were serially diluted starting a concentration of 15 μM with the exception of the last row (used as a negative control 10 μL of 0.01% acetic acid). 80 μL of the resuspended bacteria culture, and 10 μL of 50 μg/mL nitrocefin in PBS. The absorbance was recorded at 486 nm in 5-minute intervals for a total run time of 90 minutes immediately following the addition of nitrocefin. The antimicrobial agent polymyxin B was used as a positive control. The values presented are the average of three replicates.
As the mechanism of action of the L1 venom peptide is likely a membrane disruptive mechanism, the effect of the hydrophobic substitutions on membrane permeabilization was investigated using E.coli and ovine red blood cells (RBCs). The permeabilization of the E. coli outer membrane was assayed using an enzyme-substrate pair in which the enzyme (β-lactamase) is located in the periplasmic space while the substrate (the chromogenic nitrocefin) is added to the exterior of cells. […] Similarly, the permeabilization of the E. coli inner membrane was assessed using a cytoplasmic enzyme, β-galactosidase, and a chromogenic substrate, ONPG. […]

Data set [3] relates to Pseudomonas aeruginosa PA-01 ATCC 47085. It counts as cell-based. The note with it: highest concentration tested 15 μM. As for the experimental part:
as §1, §2

The next data set relates to K. pneumoniae. It counts as cell-based. The settings on record: highest concentration tested 15 μM. On the procedure: as §1, §2
For data set [4], the system named is Escherichia coli D31 CGSC 5165. It counts as cell-based. The settings on record: highest concentration tested 15 μM. As for the experimental part:
as §1, §2

Another data set deals with B. subtilis. The class given is cell-based. The note with it: highest concentration tested 15 μM. As for the experimental part:
as §1, §2

The test system of data set [5] is Acinetobacter baumannii ATCC 19606. It counts as cell-based. The note with it: highest concentration tested 15 μM. As for the experimental part:
as §1, §2

Data set [6] can be described thus: Red edge excitation shift (REES) solution aggregation assay. It counts as physicochemical. The note with it: 2 μM peptide in PBS pH 7.0, λex 280 to 307 nm, emission 310 to 410 nm, Trp fluorescence, average of three replicates. The text has this: All fluorescence spectroscopy experiments were preformed using a JY-Horiba Fluoromax4 instrument. Excitation and emission slit widths were kept consistent at 2.5 nm. Semi-micro quartz cuvettes were utilized for each experiment. The following formula was used to calculate a spectral barycenter for each experiment: (1) B=∑λ*i/∑i where B is the barycenter, λ is the wavelength, and i is the intensity at the specified wavelength. An entire emission spectrum from 300-400 was used the carry out the calculation of barycenter.
Red edge excitation shift (REES) experiments utilized excitation at 6 different wavelengths (λex = 280, 290, 295, 300, 305, and 307 nm) and the same emission range of 310 to 410 nm. Samples were similarly prepared as above. A blank only containing PBS buffer was used as background to correct the spectra after each addition.
Aggregation of peptides was assessed utilizing the intrinsic fluorescence properties of the Trp residue in the L1 sequence. […] Differences in the side chain motion/dynamics of the Trp residue and the local environment around the Trp can be observed by monitoring the red-edge excitation shifts (REES). […]

Where [7] appears, read: 1 μL of MIC plate culture on LB agar, overnight at 37 C.
Where [8] appears, read: LB broth, 5 x 10^5 CFU/mL, 18 hours at 37 C, OD600.

Ends that are not written are not given here.

Consider LLKELWTKMKGAGKALLGKLKGLL [L1L], for which, in data set [1], the “Antimicrobial activity (summary of MIC results)” value is on record as “broad spectrum activity”. Further, the Outer membrane permeabilization entry in data set [2] is “increased permeability of the outer membrane”.

Take FFKEFWTKMKGAGKAFFGKFKGFF [L1F]: the “MBC P. aeruginosa” value in data set [3] (setting [7]) is >15 µM. Further, the “MIC P. aeruginosa” value in data set [3] (setting [8]) is 7.5 µM. Moreover, the “MBC K. pneumoniae” value against K. pneumoniae (setting [7]) stood at 7.5 µM. Moreover, in the data set on K. pneumoniae (setting [8]), the “MIC K. pneumoniae” value worked out at 1.88 µM. Also, the “MBC E. coli” value in data set [4] (setting [7]) is >15 µM. Further, the “MIC E. coli” value in data set [4] (setting [8]) was 0.94 µM. Besides, the “MBC B. subtilis” value against B. subtilis (setting [7]) was 1.88 µM. Moreover, in the data set on B. subtilis (setting [8]), the “MIC B. subtilis” value is 1.88 µM. Further, in data set [5] (setting [7]), the “MBC A. baumannii” value amounted to 0.938 µM. Also, the “MIC A. baumannii” value in data set [5] (setting [8]) came out at 0.47 µM. Besides, in data set [1], the “Antimicrobial activity (summary of MIC results)” value is “broad spectrum activity”. Also, in data set [2], the Outer membrane permeabilization entry is on record as “increased permeability of the outer membrane”. The REES total shift in data set [6] was ~ 2 nm.
